Reference: US12269800B2, “Delivery of therapeutic alkaloid compounds” (priority 2021, dated 2025)
Values joined by “and” are separate entries in the source; they are usually repeats but may differ in a detail not shown here. Identical values can stand only once. Like-named read-outs stand apart in the source and are kept apart here.

Tests used:
[1] = Hydrolysis Assay of Example A2, Condition 1 (SGF with pepsin, pH 1.5, 37° C.); format: physicochemical; settings: for Condition 1 Conversion (%), second value of a/b: value after the slash
[2] = 5 µM
Method: (§1) 50 uL aliquots of positive controls and test compounds spiked into rat or human plasma (n=2) were added to a pre-warmed plate (37° C.) and shaken at 50 rpm. At each respective time point, the reaction was stopped by adding 500 μL of acetonitrile containing internal standards (100 nM aprozolam, 200 nM caffeine, 100 nM tolbutamide). All samples were vortexed for 10 minutes, followed by centrifugation at 3,220 g for 30 minutes to precipitate proteins. 100 μL of the supernatant is transferred to a new plate. The supernatant will be diluted with ultrapure water according to the LC-MS signal response and peak shape.

[3] = 5 µM; remark: listed apart in the source
Method: as §1

[4] = SGF with pepsin pH 1.5, 37° C., 0.5 mM, time 1 min
[5] = SGF with pepsin pH 1.5, 37° C., 0.5 mM, time 5 min
[6] = SGF with pepsin pH 1.5, 37° C., 0.5 mM, time 30 min
[7] = SGF with pepsin pH 1.5, 37° C., 0.5 mM, time 1 h
[8] = SGF with pepsin pH 1.5, 37° C., 0.5 mM, time 4 h
[9] = SGF with pepsin pH 1.5, 37° C., 0.5 mM, time 24 h
[10] = SGF with pepsin pH 1.5, 37° C., time 30 min
[11] = SGF with pepsin pH 1.5, 37° C., time 1 h
[12] = SGF with pepsin pH 1.5, 37° C., time 4 h
[13] = SGF with pepsin pH 1.5, 37° C., time 24 h
[14] = SGF with pepsin pH 1.5, 37° C., time 1 min
[15] = SGF with pepsin pH 1.5, 37° C., time 5 min

Row | Molecule | Condition 1 Conversion (%) [1, 4] [%] | Condition 1 Conversion (%) [1, 5] [%] | Condition 1 Conversion (%) [1, 6] [%] | Condition 1 Conversion (%) [1, 7] [%] | Condition 1 Conversion (%) [1, 8] [%] | Condition 1 Conversion (%) [1, 9] [%] | also measured
1 | COc1ccc([C@]23CCN(C)[C@H]2CC2(CC3)OC[C@@H](c3ccccc3)O2)cc1OC (stereo partly drawn) [Compound 081, (3′aS,4R,7′aS)-3′a-(3,4-dimethoxyphenyl)-1′-methyl-4-phenyl-spiro[1,3-dioxolane-2,6′-2,3,4,5,7,7a-hexahydroindole]] | 0 | 0 | 0 | 0 | 0 | 0 | –
2 | COCCOCCC(=O)OC1=C[C@@H]2N(C)CC[C@]2(c2ccc(OC)c(OC)c2)CC1 [Compound 405, (3aS,7aS)-3a-(3,4-dimethoxyphenyl)-1-methyl-2,3,3a,4,5,7a-hexahydro-1H-indol-6-yl 3-(2-methoxyethoxy)propanoate] | – | – | – | – | – | – | Human Plasma Prodrug (%) ([2]; 0 min): 100.0%; Human Plasma Prodrug (%) ([2]; 10 min): >99%; Human Plasma Prodrug (%) ([2]; 30 min): 95.0%; Human Plasma Prodrug (%) ([2]; 60 min): 87.0%; Human Plasma Prodrug (%) ([2]; 120 min): 65.7%; Human Plasma Prodrug (%) ([2]; 240 min): 46.7%; Rat Plasma Prodrug (%) ([3]; 0 min): 100.0%; Rat Plasma Prodrug (%) ([3]; 10 min): 0.1%; Rat Plasma Prodrug (%) ([3]; 30 min): 0.0%; Rat Plasma Prodrug (%) ([3]; 60 min): 0.1%; Rat Plasma Prodrug (%) ([3]; 120 min): 0.0%; Rat Plasma Prodrug (%) ([3]; 240 min): 0.0%
3 | COc1ccc([C@@]23CCC(OC(=O)CCC(C)C)=C[C@@H]2N(C)CC3)cc1OC [Compound 399, (3aS,7aS)-3a-(3,4-dimethoxyphenyl)-1-methyl-2,3,3a,4,5,7a-hexahydro-1H-indol-6-yl 4-methylpentanoate] | – | – | – | – | – | – | Human Plasma Prodrug (%) ([2]; 0 min): 100.0%; Human Plasma Prodrug (%) ([2]; 10 min): 5.6%; Human Plasma Prodrug (%) ([2]; 30 min): 1.1%; Human Plasma Prodrug (%) ([2]; 60 min): 0.5%; Human Plasma Prodrug (%) ([2]; 120 min): 0.3%; Human Plasma Prodrug (%) ([2]; 240 min): 0.2%; Rat Plasma Prodrug (%) ([3]; 0 min): 100.0%; Rat Plasma Prodrug (%) ([3]; 10 min): 0.0%; Rat Plasma Prodrug (%) ([3]; 30 min): 0.0%; Rat Plasma Prodrug (%) ([3]; 60 min): 0.0%; Rat Plasma Prodrug (%) ([3]; 120 min): 0.0%; Rat Plasma Prodrug (%) ([3]; 240 min): 0.0%
4 | COc1ccc([C@@]23CCN(C)[C@@H]2CC2(CC3)OCCS2)cc1OC (stereo partly shown) [Compound 070] | 0 | 0 | 0 | 0 | 0 | 0 | –
5 | COc1ccc([C@@]23CCC(=NNCCc4ccccc4)C[C@@H]2N(C)CC3)cc1OC [Compound 159, N-[[(3aS,7aS)-3a-(3,4-dimethoxyphenyl)-1-methyl-2,3,4,5,7,7a-hexahydroindol-6-ylidene]amino]-2-phenyl-ethanamine] | – | – | – | – | – | – | Condition 1 Conversion (%) ([1]; pH 1.5): 77% and 91% and 100% (2×)
6 | COc1ccc([C@]23CCN(C)[C@H]2CC2(CC3)OCC(COCc3ccccc3)O2)cc1OC (stereo partly shown) [Compound 215] | 0 | 0 | 6.1 | 15.2 | 25.8 | 46.8 | –
7 | C=CC1OC2(CC[C@@]3(c4ccc(OC)c(OC)c4)CCN(C)[C@H]3C2)OC1C=C (stereo partly drawn) [Compound 213, (3′aS,7′aS)-3′a-(3,4-dimethoxyphenyl)-1′-methyl-4,5-divinyl-spiro[1,3-dioxolane-2,6′-2,3,4,5,7,7a-hexahydroindole]] | 0 | 0 | 0 | 0 | 0 | 0 | –
8 | COc1ccc([C@]23CCN(C)[C@H]2CC2(CC3)OCC(c3ccncc3)O2)cc1OC (stereo partly drawn) [Compound 110, (3′aS,7′aS)-3′a-(3,4-dimethoxyphenyl)-1′-methyl-4-(4-pyridyl)spiro[1,3-dioxolane-2,6′-2,3,4,5,7,7a-hexahydroindole]] | 0 | 0 | 0 | 0 | 0 | 0 | –
9 | COc1ccc([C@@]23CCC(=NOC4CCCCO4)C[C@@H]2N(C)CC3)cc1OC (stereo partly drawn) [Compound 206, (3aS,7aS)-3a-(3,4-dimethoxyphenyl)-1-methyl-N-tetrahydropyran-2-yloxy-2,3,4,5,7,7a-hexahydroindol-6-imine] | – | – | 1.41 | 7.83 | 0 | 0 | Condition 1 Conversion (%), second value of a/b [1, 10]: 0%; Condition 1 Conversion (%), second value of a/b [1, 11]: 2.57%; Condition 1 Conversion (%), second value of a/b [1, 12]: 77.75%; Condition 1 Conversion (%), second value of a/b [1, 13]: 100%
10 | COc1ccc([C@]23CCN(C)[C@H]2CC2(CC3)OCC(c3cccc([N+](=O)[O-])c3)O2)cc1OC (stereo partly drawn) [Compound 113, (3′aS,7′aS)-3′a-(3,4-dimethoxyphenyl)-1′-methyl-4-(3-nitrophenyl)spiro[1,3-dioxolane-2,6′-2,3,4,5,7,7a-hexahydroindole]] | 0 | 0 | 0 | 0 | 0 | 0 | –
11 | COc1ccc([C@]23CCN(C)[C@H]2CC2(CC3)OCCS2)cc1OC (stereo partly shown) [Compound 69] | 0 | 0 | 0 | 0 | 0 | 0 | –
12 | COc1ccc([C@@]23CCC(=NOCC(=O)OC(C)(C)C)C[C@@H]2N(C)CC3)cc1OC [Compound 202, tert-butyl 2-[[(3aS,7aS)-3a-(3,4-dimethoxyphenyl)-1-methyl-2,3,4,5,7,7a-hexahydroindol-6-ylidene]amino]oxyacetate] | – | – | – | 1.12 | 3.01 | 64.4 | Condition 1 Conversion (%), second value of a/b [1, 11]: 0%; Condition 1 Conversion (%), second value of a/b [1, 12]: 6.42%; Condition 1 Conversion (%), second value of a/b [1, 13]: 6.42%
13 | COc1ccc([C@]23CCN(C)[C@H]2CC2(CC3)OCC(C)O2)cc1OC (stereo partly drawn) [Compound 211, (3′aS,7′aS)-3′a-(3,4-dimethoxyphenyl)-1′,4-dimethyl-spiro[1,3-dioxolane-2,6′-2,3,4,5,7,7a-hexahydroindole]] | 0 | 0 | 0 | 0 | 0 | 0 | –
14 | N-[[(3aS,7aS)-3a-(3,4-dimethoxyphenyl)-1-methyl-3,4,7,7a-tetrahydro-2H-indol-6-yl]3,4-dimethoxybenzoate [Compound 302] | 0 | 0 | 0 | 0 | 0 | 0 | –
15 | COc1ccc([C@]23CCN(C)[C@H]2CC2(CC3)OC[C@H](c3cccnc3)O2)cc1OC (stereo partly drawn) [Compound 109, (3′aS,7′aS)-3′a-(3,4-dimethoxyphenyl)-1′-methyl-4-(3-pyridyl)spiro[1,3-dioxolane-2,6′-2,3,4,5,7,7a-hexahydroindole]] | 0 | 0 | 0 | 0 | 0 | 0 | –
16 | COc1cccc(C2COC3(CC[C@@]4(c5ccc(OC)c(OC)c5)CCN(C)[C@H]4C3)O2)c1 (stereo partly drawn) [Compound 111, (3′aS,7′aS)-3′a-(3,4-dimethoxyphenyl)-4-(3-methoxyphenyl)-1′-methyl-spiro[1,3-dioxolane-2,6′-2,3,4,5,7,7a-hexahydroindole]] | 0 | 0 | 0 | 0 | 0 | 0 | –
17 | COc1ccc([C@@]23CC/C(=N\OC(C)(C)OC)C[C@@H]2N(C)CC3)cc1OC [Compound 204, (E,3aS,7aS)-3a-(3,4-dimethoxyphenyl)-N-(1-methoxy-1-methyl-ethoxy)-1-methyl-2,3,4,5,7,7a-hexahydroindol-6-imine] | 100 | 100 | 0 | 0 | 0 | 0 | Condition 1 Conversion (%), second value of a/b [1, 14]: 0%; Condition 1 Conversion (%), second value of a/b [1, 15]: 0%; Condition 1 Conversion (%), second value of a/b [1, 10]: 100%; Condition 1 Conversion (%), second value of a/b [1, 11]: 100%; Condition 1 Conversion (%), second value of a/b [1, 12]: 100%; Condition 1 Conversion (%), second value of a/b [1, 13]: 100%
18 | COc1ccc([C@@]23CCC(=NNC(N)=O)C[C@@H]2N(C)CC3)cc1OC [Compound 197, [[(3aS,7aS)-3a-(3,4-dimethoxyphenyl)-1-methyl-2,3,4,5,7,7a-hexahydroindol-6-ylidene]amino]urea] | – | – | – | – | – | – | Condition 1 Conversion (%) ([1]; pH 1.5): 0%
19 | COc1ccc([C@@]23CC/C(=N/OC(C)(C)OC)C[C@@H]2N(C)CC3)cc1OC [Compound 219, (Z,3aS,7aS)-3a-(3,4-dimethoxyphenyl)-N-(1-methoxy-1-methyl-ethoxy)-1-methyl-2,3,4,5,7,7a-hexahydroindol-6-imine] | 100 | 100 | 0 | 0 | 0 | 0 | Condition 1 Conversion (%), second value of a/b [1, 14]: 0%; Condition 1 Conversion (%), second value of a/b [1, 15]: 0%; Condition 1 Conversion (%), second value of a/b [1, 10]: 100%; Condition 1 Conversion (%), second value of a/b [1, 11]: 100%; Condition 1 Conversion (%), second value of a/b [1, 12]: 100%; Condition 1 Conversion (%), second value of a/b [1, 13]: 100%
